Structures are written as SMILES. Activity calls are given as the source filed them.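 The calls were made as follows: active = signal falls with dose and the fitted half-maximal concentration is at or below twice the top valid tested dose; inconclusive = flat curve with 30 to 70% inhibition, or poor fit; inactive = wrong direction, flat within 30%, or potency beyond limit.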

One assay addresses Golgi-associated PDZ and coiled-coil motif-containing protein (Homo sapiens) (UniProt Q9HD26). As to the kind of experiment: blockers of CAL PDZ ligand groove binding – biochemical, fluorescence polarization, untagged CAL PDZ, cherry-pick, dose response (AID 602267). The conditions noted are these: purified CAL PDZ, TMR-peptide fluorescence polarization, 1 h.
For the compound `CCOc1ccc2c(c1)C(NC(C)=O)C(=O)N2CCN1CCOCC1` (stereo not given), the AC50 was > 100 µM (inactive).

In the case of `CCNc1ccc2noc3c2c1C(=O)c1ccccc1-3`, the AC50 was 4.74 µM.

For `CCc1ccc(S(=O)(=O)/N=C2/C=C(Sc3ncn[nH]3)C(=O)c3ccccc32)cc1`, the AC50 was 16.4 µM.

Still in this assay, the particulars now being: purified CAL PDZ, TMR-peptide fluorescence polarization, 1 h; at 16 µM (top of the series).
Take `Oc1ccccc1N=Cc1c(O)ccc2oc3c(c12)CCCC3`: the “activity change, negative = inhibition” value was “inactive”.

In the case of `COc1ccc(N2CCN(C(=O)c3cccc4nc(C)oc34)CC2)cc1`, the “activity change, negative = inhibition” value is “inactive”.

As for `C=CCOc1c(Cl)cc(CNn2cn[nH]c2=S)cc1OC`, the “activity change, negative = inhibition” value is “inactive”.

The assay is the same for the next values; noted with them: purified CAL PDZ, TMR-peptide fluorescence polarization, 1 h; at 50 µM (top of the series).
Take `O=C(OCC(=O)N1CCc2ccccc2C1)c1cccnc1Cl`: the “activity change, negative = inhibition” value was “inactive”.

With `CCOCCCNC(=S)N1CCN(c2nc(-c3ccccc3)cs2)CC1`, the “activity change, negative = inhibition” value is “inactive”.

`O=C1OC(c2ccccc2)(c2ccccc2)c2ccccc21`: the “activity change, negative = inhibition” value is “inactive”.

On to `O=C(COC(=O)c1cccnc1Cl)Nc1ccc2c(c1)OCO2`, for which the “activity change, negative = inhibition” value is “inactive”.

Turning to `O=C(NCc1cccnc1)/C(=C/c1ccc(-c2cccc(C(F)(F)F)c2)o1)NC(=O)c1ccccc1`, the “activity change, negative = inhibition” value was “inactive”.

For `O=C(c1cccc(Oc2c(Cl)cccc2[N+](=O)[O-])c1)N1CCOCC1`, the “activity change, negative = inhibition” value was “inactive”.

For the compound `CCCCC(CCC(=O)Nc1nccs1)C(=O)O` (stereo not given), the “activity change, negative = inhibition” value is “inactive”.

For the compound `CC(C)CNC(=O)CC1Nc2ccccc2NC1=O` (stereo not given), the “activity change, negative = inhibition” value is “inactive”.

On to `O=C(Cc1ccccc1)NN=C1CCCC1`, for which the “activity change, negative = inhibition” value was “inactive”.

For the compound `O=C(COC(=O)c1ccc(Cl)nc1)Nc1ccc(N2CCCCC2)cc1`, the “activity change, negative = inhibition” value is “inactive”.

Regarding `Cc1ccc(C)c(N(CC(=O)NC(C)(C)C)C(=O)CCC(=O)Nc2nccs2)c1`, the “activity change, negative = inhibition” value is “inactive”.

Turning to `O=C(NCc1ccccc1)c1cc2ccc(O)cc2oc1=O`, the “activity change, negative = inhibition” value is “inactive”.

With `Cc1ccc(NC(=O)CN(C)C(=S)NC2CC2)cc1`, the “activity change, negative = inhibition” value was “inactive”.

As to `CN1CC(=O)N(CC(=O)Nc2ccc(Br)cc2F)C1=O`, the “activity change, negative = inhibition” value is “inactive”.

As for `O=C(O)c1cccc(Nc2ccc([N+](=O)[O-])cn2)c1`, the “activity change, negative = inhibition” value was “inactive”.

For the compound `O=C(NCCCn1ccnc1)c1ccccc1F`, the “activity change, negative = inhibition” value was “inactive”.

As to `O=C(c1cccs1)N1CCN(C(=O)N2CCOCC2)CC1`, the “activity change, negative = inhibition” value was “inactive”.

As for `S=C(NCCc1ccccc1)N1CCn2cccc2C1c1cccnc1` (stereo not given), the “activity change, negative = inhibition” value is “inactive”.

With `Cc1ccc(-c2nnn(CC(=O)N(CCN3CCOCC3)C(C(=O)NC(C)(C)C)c3ccc(C)o3)n2)cc1` (stereo not given), the “activity change, negative = inhibition” value is “inactive”.

In the case of `O=C(c1ccccc1Cl)N(Cc1ccc(Cl)c(Cl)c1)N1C(=O)CCCC1=O`, the “activity change, negative = inhibition” value is “inactive”.

With `Nc1ccc(N(CCO)CCO)cc1`, the “activity change, negative = inhibition” value was “inactive”.

For the compound `OC(c1ccccc1)(c1ccccc1)c1nccc2ccccc12`, the “activity change, negative = inhibition” value was “inactive”.

With `Cc1ccc2nc(NS(C)(=O)=O)sc2c1`, the “activity change, negative = inhibition” value was “inactive”.

On to `O=C(CCC(=O)N1CCN(c2ccccc2F)CC1)N1CCN(c2ccccc2)CC1`, for which the “activity change, negative = inhibition” value is “inactive”.

In the case of `O=C(N/N=C/c1ccc(OCc2ccccc2)cc1)c1ccc(O)cc1`, the “activity change, negative = inhibition” value is “inactive”.

`CC(C)OC(=O)C1CC(C)(O)C(=O)C(C(=O)OC(C)C)C1c1ccc([N+](=O)[O-])cc1` (stereo not given): the “activity change, negative = inhibition” value was “inactive”.

As for `c1ccc(C(Nc2cccnc2)c2ccccc2)cc1`, the “activity change, negative = inhibition” value was “inactive”.

As for `COc1ccc(/C=N/N2CCN(c3ccccc3OC)CC2)cc1Br`, the “activity change, negative = inhibition” value was “inactive”.

Consider `O=C(NCC1CCCO1)c1cn(-c2ccccc2)nc1-c1ccc(F)cc1` (stereo not given), for which the “activity change, negative = inhibition” value is “inactive”.

Turning to `COC(=O)[C@H]1[C@H]2C[C@@H]3c4[nH]c5cc(OC)ccc5c4CCN3C[C@H]2C[C@@H](OC(=O)/C=C/c2cc(OC)c(OC)c(OC)c2)[C@@H]1OC`, the “activity change, negative = inhibition” value was “inactive”.

Turning to `CC(=O)Nc1ccc(N/C=C/C(=O)c2ccccc2)cc1`, the “activity change, negative = inhibition” value was “inactive”.

Consider `O=C(c1c(Cl)cccc1Cl)N1CCCCCC1`, for which the “activity change, negative = inhibition” value was “inactive”.

As for `CC(C)CNC(=O)COC(=O)CCC(=O)c1ccc(Cl)cc1`, the “activity change, negative = inhibition” value was “inactive”.

With `O=C1C=C(c2ccccc2)C(c2ccccc2)C1` (stereo not given), the “activity change, negative = inhibition” value was “inactive”.

On to `CCN1CCN(S(=O)(=O)c2ccc(OC)c3ccccc23)CC1`, for which the “activity change, negative = inhibition” value is “inactive”.

Take `Cc1ccc(CN(C(=O)c2ccco2)C(C(=O)NC2CCCC2)c2cccnc2)cc1` (stereo not given): the “activity change, negative = inhibition” value was “inactive”.

As for `Cc1nc(N)c(CC(Br)CBr)c(Cl)n1` (stereo not given), the “activity change, negative = inhibition” value was “inactive”.

Turning to `COCCN(Cc1nc(C(c2ccccc2)c2ccccc2)no1)C(C)C`, the “activity change, negative = inhibition” value was “inactive”.

With `CCN(CC)S(=O)(=O)c1ccc(/C=C/C(=O)OCC(=O)N(C)C)cc1`, the “activity change, negative = inhibition” value is “inactive”.

With `CN(C)c1ccc(C=c2c3cc(O)ccc3n3c2cc(-c2ccccc2)[n+]3C)cc1`, the “activity change, negative = inhibition” value was “inactive”.

Consider `Cc1cccc(N=Nc2c(O)[nH]c3ccc(F)cc23)c1`, for which the “activity change, negative = inhibition” value is “inactive”.

Regarding `CCc1ccc(C2CC(=O)N(c3cccc(F)c3)C3=C2C(=O)OC3)cc1` (stereo not given), the “activity change, negative = inhibition” value is “inactive”.

For the compound `C=CCNC(=S)Nc1ccc(C)c(S(=O)(=O)N2CCCCC2)c1`, the “activity change, negative = inhibition” value was “inactive”.

For the compound `CC(=O)N1CCN(c2ccc(NC(=O)c3cccc(Cl)c3Cl)cc2)CC1`, the “activity change, negative = inhibition” value is “inactive”.

Consider `OCC1(CCOc2ccccc2)CCN(CCCn2cccn2)CC1`, for which the “activity change, negative = inhibition” value is “inactive”.

As for `Cc1c(C)c2cc3c4c(oc3c(C)c2oc1=O)CCCC4`, the “activity change, negative = inhibition” value was “inactive”.

Consider `Cc1ccnc2nc(C(=O)OCCOc3ccc(F)cc3)nn12`, for which the “activity change, negative = inhibition” value is “inactive”.

Consider `CC(NS(=O)(=O)c1ccc(Cl)c(Cl)c1)C(=O)OCC(=O)Nc1ccc2c(c1)OCO2` (stereo not given), for which the “activity change, negative = inhibition” value is “inactive”.

Consider `O=C1CC(c2ccccc2)=C(c2ccccc2)C1`, for which the “activity change, negative = inhibition” value is “inactive”.

Take `O=C(NC1(C(F)(F)F)NC(=O)N(C2CCCCC2)C1=O)C1CC1` (stereo not given): the “activity change, negative = inhibition” value was “inactive”.

For the compound `COc1ccc2ccn(S(=O)(=O)c3ccccc3)c2c1`, the “activity change, negative = inhibition” value is “inactive”.

In the case of `O=C(CCc1nc(-c2ccc(Cl)cc2)no1)NC1CCCCC1`, the “activity change, negative = inhibition” value was “inactive”.

With `O=C(/C=C/c1cccs1)Nc1scc(-c2ccccc2)c1C(=O)O`, the “activity change, negative = inhibition” value was “inactive”.

Consider `CCCNC(=O)C(=O)NCC1CCCN1CC` (stereo not given), for which the “activity change, negative = inhibition” value is “inactive”.

`CC(=Nc1ccccc1O)c1sc2ccccc2c1O`: the “activity change, negative = inhibition” value is “inactive”.

On to `O=C(c1ccccc1)C(CCc1ccccn1)CCc1ccccn1`, for which the “activity change, negative = inhibition” value is “inactive”.

On to `CC1=C(C#N)C(Nc2ccc(Cl)cn2)(C(F)(F)F)C(=O)N1` (stereo not given), for which the “activity change, negative = inhibition” value was “inactive”.

Consider `C(=C/c1nccc2c1[nH]c1ccccc12)/c1ccc2c(c1)OCO2`, for which the “activity change, negative = inhibition” value was “inactive”.

Consider `CC(CN1CCCC1)OC(=O)C(c1ccccc1)c1ccccc1` (stereo not given), for which the “activity change, negative = inhibition” value was “inactive”.

As to `COc1cc(NS(=O)(=O)c2ccc(NC(=S)Nc3ccccc3)cc2)nc(OC)n1`, the “activity change, negative = inhibition” value was “inactive”.

For `CS(=O)(=O)c1ccc2nc(NC(=O)CN3C(=O)C4CC=CCC4C3=O)sc2c1` (stereo not given), the “activity change, negative = inhibition” value was “inactive”.

On to `CCN(CC)CCn1c(SCC(=O)NCc2ccccc2)nc2c(sc3ccccc32)c1=O`, for which the “activity change, negative = inhibition” value is “inactive”.

For `FC(F)(F)c1cc(-c2cccs2)nc2ncnn12`, the “activity change, negative = inhibition” value is “inactive”.

As to `Cc1cc(C)c(S(=O)(=O)NCc2ccc3c(c2)OCO3)c(C)c1`, the “activity change, negative = inhibition” value is “inactive”.

As for `O=C(NCCc1cnc[nH]1)c1cccs1`, the “activity change, negative = inhibition” value is “inactive”.

As to `Cc1ccc(/C=N/NC(=O)NN(C)c2ncc(C(F)(F)F)cc2Cl)cc1`, the “activity change, negative = inhibition” value was “inactive”.

Take `CCNC(=S)N(CCN(CC)CC)Cc1cc2cc3c(cc2[nH]c1=O)OCCO3`: the “activity change, negative = inhibition” value is “inactive”.

As to `CCOC(=O)Cn1ncn(-c2ccc(OC(F)(F)F)cc2)c1=O`, the “activity change, negative = inhibition” value is “inactive”.

Consider `O=C(NC1CCCCCCC1)c1cc([N+](=O)[O-])ccc1Cl`, for which the “activity change, negative = inhibition” value was “inactive”.

`Cc1ccc(S(=O)(=O)N2CCN(C(=O)N(C)C)CC2)cc1`: the “activity change, negative = inhibition” value was “inactive”.

In the case of `CCN(CC)Cc1c(O)ccc2c1O/C(=C\C=C\c1ccccc1)C2=O`, the “activity change, negative = inhibition” value was “inactive”.

As for `O=C(Oc1c(CN2CCOCC2)cc(Cl)c2cccnc12)c1ccc(F)cc1`, the “activity change, negative = inhibition” value was “inactive”.

`Cc1cc(=O)n2c3ccccc3n(CC(O)CN3CCN(CCO)CC3)c2c1C#N` (stereo not given): the “activity change, negative = inhibition” value is “inactive”.

`O=C(C=Cc1ccccc1)c1cc(Br)ccc1O`: the “activity change, negative = inhibition” value is “inactive”.

Turning to `Cc1nn(C)c(C)c1S(=O)(=O)N1CCC(CO)(CC2CCCCO2)CC1` (stereo not given), the “activity change, negative = inhibition” value was “inactive”.

Consider `CCCCNC(=S)NNc1c(Cl)cc(Cl)cc1Cl`, for which the “activity change, negative = inhibition” value was “inactive”.

As to `O=C(NNS(=O)(=O)c1ccc(Cl)cc1)c1cccs1`, the “activity change, negative = inhibition” value was “inactive”.

`COc1cc([N+](=O)[O-])ccc1NC(=O)CN1CCN(C(=O)c2ccco2)CC1`: the “activity change, negative = inhibition” value was “inactive”.

With `Cc1cc(C(=O)CN2CCCC2)c(C)n1-c1ccc(Cl)cc1`, the “activity change, negative = inhibition” value is “inactive”.

The term AC50 denotes the concentration at which the activity in the assay is half-maximal.

Source of the values: PubChem BioAssay AID602267 (Broad Institute, 2012).
